Results as given in the NIST ThermoML archive (doi:10.1016/j.jct.2013.11.026).
Numbers after ± are expanded uncertainties.

Conditions: 298.15 K, 101.8 kPa, Liquid; for viscosity: Falling or rolling sphere viscometry; for mass density: Vibrating tube method

Row | viscosity [mPa·s] | mass density [kg/m3] | Compound
1 | 1.125 ± 0.024 | 785.07 ± 1 | CCO [ethanol]
2 | 0.8599 ± 0.022 | 838.59 ± 1.6 | C=C(C)[C@H]1CC=C(C)CC1 [(R)-1-methyl-4-(1-methylethenyl)cyclohexene]
3 | 1.616 ± 0.034 | 866.93 ± 1 | C=C1CC[C@H]2C[C@@H]1C2(C)C [(1S,5S)-6,6-dimethyl-2-methylenebicyclo[3.1.1]heptane]

The remaining lines, values behind:

Row | Compound | viscosity [mPa·s] | mass density [kg/m3]
4 | C=CC(C)(CCC=C(C)C)OC(C)=O (stereo unspecified) [linalool acetate] | 2.291 ± 0.049 | 898.64 ± 1
5 | C=CC(C)(O)CCC=C(C)C (stereo unspecified) [3,7-dimethyl-1,6-octadien-3-ol] | 4.349 ± 0.092 | 857.28 ± 1
6 | C=C(C)[C@@H]1CC=C(C)C(=O)C1 [l-carvone] | 2.456 ± 0.052 | 958.79 ± 1
7 | CC(C)=CCCC(C)=CC=O [3,7-dimethyl-2,6-octadienal (cis+trans)] | 2.019 ± 0.043 | 883.42 ± 1
8 | CC1=CCC(C(C)C)=CC1 [1-methyl-4-(1-methylethyl)-1,4-cyclohexadiene] | 1.144 ± 0.031 | 844.9 ± 1.9
